Test results from PubChem BioAssay AID624445 (Broad Institute, 2012).
Records with an inconclusive call do not appear. Active and inactive are the calls of the source.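 The calls were made as follows: active = fitted curve drops past -35% activity change at a concentration under twice the top valid tested dose; inconclusive = no clear call, values can overlap the other calls; inactive = the rest, including effects in the wrong direction.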

System: 26S proteasome chymotrypsin-like activity (human)
Assay: proteasome chymotrypsin-like activity inhibition in cells, dose response, mechanism study for HSF1 activator project, cell-based, U2OS, Proteasome-Glo luminescence, dry powder, set 2 (AID 624445)
Details: for activity change, negative = inhibition: at 38 µM (top of the series)

`O=C(Nc1nc(SCc2ccccc2)ns1)C1CC=CCC1` (stereo unspecified) was tested, and the activity change, negative = inhibition was -30.5% (inactive).

`Nc1nc(SCc2ccc(Cl)cc2Cl)ns1` was tested, and the activity change, negative = inhibition was 2.27% (inactive).

`Nc1nc(SCc2ccccc2)ns1` gave an AC35 of 37.2 µM.

With `Cc1ccccc1CSc1n[nH]c(N)n1` the activity change, negative = inhibition was 9.01% (inactive).

For `Cc1ccccc1CSc1nnc(N)s1`, the activity change, negative = inhibition was -25.3% (inactive).

In the case of `Cc1ccccc1CSc1nsc(N)n1`, the activity change, negative = inhibition is reported as -21.8% (inactive).

`Cc1cccc(CSc2nsc(N)n2)c1` showed an AC35 of 35.2 µM.

For `Nc1nc(S(=O)(=O)Cc2ccccc2)ns1`, the activity change, negative = inhibition was -17.1% (inactive).

`O=C(Nc1nc(SCc2ccccc2)ns1)C1CCC1` gave an AC35 of 30.4 µM.

In the case of `Nc1nc(SCc2ccc(F)cc2)ns1`, the activity change, negative = inhibition is reported as -32.9% (inactive).

`Nc1nc(SCc2ccccc2Cl)ns1` was tested, and the activity change, negative = inhibition was -20.5% (inactive).
